Read-outs that look alike come from different tables or passages of the source. Marks after values point to notes of the source that are not given here.
What was measured:
[1] = test system: TGF-β mRNA expression; test: Effect of oltipraz/DDB combinations on TGF-β mRNA expression (quantitative RT-PCR) in DMN-administered animals; assay type: in vivo
Excerpt: As addressed above, TGF-β is a cytokine that causes hepatic fibrosis and is known to be associated with hepatic fibrosis development.
However, as the DDB to oltipraz ratio increases, the inhibition of TGF-β expression is progressively lost. In the animal group administered with DDB alone, TGF-β expression was not inhibited. Therefore, inhibition of TGF-β expression is considered to be caused by oltipraz. On this ground, the best combination ratio of oltipraz to DDB is 5:1 (Table 9).

[2] = test system: NF-κB activation in Raw264.7 cells; test: LPS-induced NF-κB DNA binding activity in Raw264.7 cells; assay type: cell-based
Procedure: Stimulation of Raw264.7 cells with […] of LPS caused an increase in DNA binding activity of NF-κB after 30 min to 1 h. DDB at the concentrations of 0.1, 0.3 and 1 mM inhibited NF-κB activity in a concentration-dependent manner.

[3] = test system: TNF-α production in RAW264.7 cells; test: TNF-α production by LPS in RAW264.7 cells; assay type: cell-based; conditions: Table 6, TNF-α production; LPS + DDB 1.0 mg/kg as printed
Procedure: (§1) TNF-α is the principal mediator of the responses to LPS and is involved in inflammatory processes. It was determined by ELISA whether the amount of TNF-α released into blood decreases when NF-κB activity was inhibited by DDB. A single dose of LPS treatment (1 μg/kg, i.v.) increased the TNF-α level from 35 to 5160 pg per ml of plasma 2 h after administration. DDB treatment at a dose of 20, 50 or 100 mg/kg prevented the elevation of plasma TNF-α level by LPS, resulting in 1350, 1230 or 690 pg per ml of plasma, respectively. With the RAW264.7 cells, DDB decreased the production of TNF-α by LPS.

[4] = test system: TNF-α production; test: Plasma TNF-α after LPS in rats (ELISA); assay type: in vivo, rat; conditions: for plasma TNF-α level: LPS 1 μg/kg i.v., 2 h after administration; for % inhibition of LPS-induced plasma TNF-α elevation: Table 6, TNF-α production in plasma
Procedure: as §1

[5] = test system: I-κBα degradation; test: I-κBα degradation after LPS in rats; assay type: in vivo, rat; conditions: LPS 1 μg/kg + DDB 100 mg/kg, 2 h prior to LPS
Procedure: (§2) Translocation of NF-κB to the nucleus was preceded by phosphorylation and proteolytic degradation of the I-κBα subunit. This test was conducted in order to ascertain whether the effect of DDB on NF-κB activation is associated with the inhibition of I-κBα degradation. The level of I-κBα protein was reduced 30 min after the treatment of rats with LPS (1 μg/kg). In contrast, treatment with DDB 2 h prior to LPS treatment attenuated the decrease in I-κBα protein by LPS. Also with RAW264.7 cells, DDB inhibited the degradation of I-κBα protein in a concentration-dependent manner at the concentrations of 0.3 to 1 mM.

[6] = test system: NF-κB activation; test: LPS-inducible NF-κB activation in rat liver (EMSA); assay type: in vivo; conditions: 2 h prior to LPS
Procedure: It is known that NF-κB activation is associated with inflammatory responses. To compare the NF-κB activity in the liver tissue when DDB is administered with that when DDB is not administered, the following test was conducted. SD male rats with weight of about 150 g were used. For one group 7 rats were used. For the control group (vehicle administered) and test group (20 to 100 mg/kg/day of DDB administered), the NF-κB activity in accordance with the treatment of endotoxin (lipopolysaccharide, LPS) was measured by using Electrophoresis Mobility Shift Assay (EMSA).

[7] = test system: I-κBα degradation in RAW264.7 cells; test: I-κBα degradation after LPS in RAW264.7 cells; assay type: cell-based
Procedure: as §2

[8] = test system: TGF-β expression in RAW264.7 macrophage cells; test: Inhibition of TGF-β expression in RAW264.7 macrophage cells; assay type: cell-based
[9] = test system: DMN induced hepatic fibrosis; test: animal or person
Excerpt: Plasma gamma-glutamyl transpeptidase (gamma-GT) activity and bilirubin content are used as indicators of hepatic functionality.
Each value is represented by the average ± standard deviation. The number of animals used ranged from 8 to 16. The significance of each group was indicated by the Newman-Keuls test of multiple analysis. The significance markers are: *=p<0.05 compared to control, #=p<0.05 compared to DMN treated group.
The anti-fibrotic activity of the oltipraz/DDB combination was evaluated by changing the component ratio of the combination. To evaluate the effect of the combination according to the component ratio, the dosage schedule of DMN was partially modified. That is, while DMN was administered to a rat 12 times totally in dosages of 10 μl/kg per administration over a 4-week period, 3 times a week in the test examples 1 and 2, to evaluate the effect of the combination according to the component ratio, an animal model with reduced liver damage was used wherein DMN was administered to a rat 9 times totally in dosages of 10 μl/kg per administration over a 3-week period, 3 times a week, and then not administered in the remaining one week in the test example.

[10] = test system: DMN induced hepatic fibrosis; conditions: 3 times a week; for Fibrosis Values: score 0-4
Procedure: The degree of fibrosis was determined by evaluating the fibrosis and Knodell scores, which show degrees of liver damage and fibrosis.
Each value is represented by the average ± standard deviation. The number of animals used was 8 to 16. The significance of each group is determined by the Newman-Keuls test of multiple analysis. *p<0.05, **p<0.01. Degree of fibrosis 0=Normal, 1=Presence of weak fibrous tissue, 2=Moderate presence of fibrous tissue, 3=Obvious presence of fibrous tissue, 4=Evidence of severe fibrosis. Sum of values from periportal bridging (Greatest=10), intralobular cell loss (Greatest=4), portal inflammation (Greatest=4), and fibrosis (Greatest=4) yields the Knodell score.

[11] = test system: TGF-β 1 mRNA expression; conditions: liver tissue; 100 mg/kg oltipraz given 18 hours after DMN, observed 24 hours later
[12] = plasma, DMN 4 weeks + Oltipraz 50 mg/kg
[13] = DMN 4 weeks + Oltipraz 5 mg/kg oral
[14] = DMN 4 weeks + Oltipraz 15 mg/kg oral
[15] = DMN 4 weeks + Oltipraz 50 mg/kg oral

Structure (SMILES): COC(=O)c1cc(OC)c2c(c1-c1c(C(=O)OC)cc(OC)c3c1OCO3)OCO2 [DDB, dimethyl-4,4′-dimethoxy-5,6,5′,6′-dimethylene dioxybiphenyl-2,2′-dicarboxylate]
- % Inhibition of TGF-β mRNA expression ([1]; DMN + DDB 30 mg/kg): 0%
- TGF-β expression (result in words) ([1]; DMN + DDB alone): not inhibited
- % inhibition of NF-κB activation ([2]; LPS 1 μg/ml + DDB 0.1 mM): 33%
- % inhibition of NF-κB activation ([2]; LPS 1 μg/ml + DDB 0.3 mM): 35%
- % inhibition of NF-κB activation ([2]; LPS 1 μg/ml + DDB 1.0 mM): 65%
- % inhibition of TNF-α production [3]: 65%
- plasma TNF-α level ([4]; DDB 20 mg/kg): 1350 pg per ml of plasma
- plasma TNF-α level ([4]; DDB 50 mg/kg): 1230 pg per ml of plasma
- plasma TNF-α level ([4]; DDB 100 mg/kg): 690 pg per ml of plasma
- % inhibition of LPS-induced plasma TNF-α elevation ([4]; LPS 1 μg/kg + DDB 20 mg/kg): 74%
- % inhibition of LPS-induced plasma TNF-α elevation ([4]; LPS 1 μg/kg + DDB 50 mg/kg): 76%
- % inhibition of LPS-induced plasma TNF-α elevation ([4]; LPS 1 μg/kg + DDB 100 mg/kg): 87%
- % inhibition of I-κBα degradation [5]: 67%
- % inhibition of NF-κB activation ([6]; LPS 1 μg/kg + DDB 20 mg/kg): 42%
- % inhibition of NF-κB activation ([6]; LPS 1 μg/kg + DDB 50 mg/kg): 63%
- % inhibition of NF-κB activation ([6]; LPS 1 μg/kg + DDB 100 mg/kg): 73%
- % inhibition of I-κBα degradation ([7]; LPS 1 μg/ml + DDB 0.1 mM): 22%
- % inhibition of I-κBα degradation ([7]; LPS 1 μg/ml + DDB 0.3 mM): 34%
- % inhibition of I-κBα degradation ([7]; LPS 1 μg/ml + DDB 1.0 mM): 65%

Structure (SMILES): O=C(O)CN(CCOCCOCCN(CC(=O)O)CC(=O)O)CC(=O)O [EGTA]
- TGF-β Inhibition Percentage (%) ([8]; EGTA 1 mM): 80%

Structure (SMILES): O=c1c(-c2ccc(O)cc2)coc2cc(O)cc(O)c12 [Genistein, genistein]
- inhibition at 100 µM ([8]; Mus musculus, Genistein 100 μM, read-out: TGF-β Inhibition Percentage (%)): 80%

Structure (SMILES): Cc1c(-c2cnccn2)ssc1=S [Oltipraz, 5-(2-pyrazinyl)-4-methyl-1,2-dithiol-3-thione]
- inhibition percentage of ALT increase by DMN ([9]; 50 mg/kg of oltipraz administered alone (stated in Test Example 7)): 40%
- inhibition at 50 mg/kg ([9]; Rattus norvegicus, read-out: inhibition of plasma bilirubin increase): 65%
- ALT [9, 12]: 116 ± 4^#
- AST [9, 12]: 246 ± 32^#
- Bilirubin [9, 12]: 0.3 ± 0.03^#
- gamma-GT [9, 12]: 2.6 ± 0.5^#
- TGF-β expression (result in words) ([1]; DMN + 30 mg/kg of oltipraz): completely inhibited
- % Inhibition of TGF-β mRNA expression ([1]; DMN + oltipraz 30 mg/kg): 65%
- Knodell Values [10, 13]: 11.1 ± 1.7*
- Fibrosis Values [10, 13]: 3.1 ± 0.4*
- Knodell Values [10, 14]: 12.1 ± 1.9*
- Fibrosis Values [10, 14]: 2.9 ± 0.8*
- Knodell Values [10, 15]: 8.0 ± 1.6**
- Fibrosis Values [10, 15]: 2.5 ± 0.9**
- inhibition at 30 µM ([8]; Mus musculus, Oltipraz 30 μM, read-out: TGF-β Inhibition Percentage (%)): 30%
- inhibition at 100 µM ([8]; Mus musculus, Oltipraz 100 μM, read-out: TGF-β Inhibition Percentage (%)): 60%
- DMN induced expression of TGF-β 1 mRNA [11]: completely inhibited

From patent publication US7078045B2, “Pharmaceutical composition for treatment and prevention of liver fibrosis and cirrhosis” (Sang-Geon Kim, priority 2000, dated 2006)
